Counter-ions that a name gives are not always drawn.
Tests used:
CDK5 complexed with p25 = CDK5 complexed with p25 (Homo sapiens, UniProt Q00535); assay: Cyclin dependent kinase activity assay, phosphorylation of synthetic peptide PKTPKKAKKLRRR; assay type: biochemical; details: CDK5 complexed with p25, 0.1 mM ATP; read-out: CDK 5 Activity*
Experimental: (§1) The assay of cyclin dependent kinase activity was determined by monitoring the phosphorylation of a synthetic peptide, PKTPKKAKKLRRR. The assay mixture contained 0.1 mM cold ATP, ^33P-γ-ATP (2000-4000 cpm/μL), 0.1 mM peptide, 1 mM DTT, and 10 mM MgCl2 in 100 mM HEPES buffer pH 7.4. The assay mixture, along with inhibitor and CDK enzyme (0.3-0.4 U/mL; either CDK5 complexed with p25, CDK2 complexed with complexed with cyclin A), was mixed together in a microtiter plate in a final volume of 40 μL, sealed and incubated for 2 hours at 30° C. Following incubation, a 15 μL aliquot was added to a Whatman P81 filtration plate containing 100 μL 0.5% phosphoric acid. This mixture was allowed to stand for 5 minutes prior to filtration on a vacuum manifold. The filter plate was washed with 5 successive additions of 300 μL 0.5% phosphoric acid. The filtration plate was air dried for 10 minutes before sealing the bottom. After addition of scintillation fluid to the sealed plate, phosphorylated peptide was quantified in a scintillation counter.

[1] = biological target: CDK2 complexed with cyclin A (Homo sapiens, UniProt P24941); assay: as above; assay type: biochemical; details: 0.1 mM ATP, read-out: CDK 2 Activity*
Experimental: as §1

CDK5 complexed with p25, sequence (Q00535 whole entry): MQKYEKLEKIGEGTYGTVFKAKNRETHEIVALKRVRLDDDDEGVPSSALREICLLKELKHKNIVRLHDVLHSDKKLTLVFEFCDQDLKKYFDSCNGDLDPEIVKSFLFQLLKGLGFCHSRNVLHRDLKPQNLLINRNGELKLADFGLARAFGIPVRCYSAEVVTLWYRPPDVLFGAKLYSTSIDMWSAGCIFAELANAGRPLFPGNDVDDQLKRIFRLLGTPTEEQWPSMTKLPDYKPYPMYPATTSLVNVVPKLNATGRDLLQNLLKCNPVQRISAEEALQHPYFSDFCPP
CDK5 complexed with p25, sequence (Q15078 99-307 partner limits assumed): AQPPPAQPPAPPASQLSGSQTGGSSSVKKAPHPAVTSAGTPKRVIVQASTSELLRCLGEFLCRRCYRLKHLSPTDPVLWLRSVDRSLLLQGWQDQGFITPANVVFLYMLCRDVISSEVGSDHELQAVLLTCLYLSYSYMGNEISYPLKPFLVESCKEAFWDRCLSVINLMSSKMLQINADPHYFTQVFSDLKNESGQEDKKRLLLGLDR

NC(=S)N/N=C/c1cc(Br)ccc1O [Example 2, 5-Bromosalicylaldehyde thiosemicarbazone]
IC50 (CDK5 complexed with p25): 500 to 2000 nM
IC50 [1]: 2000 to 5000 nM

NC(=O)N/N=C/c1cc(Br)ccc1O [Example 3, 5-Bromosalicylaldehyde semicarbazone hydrochloride]
IC50 (CDK5 complexed with p25): 500 to 2000 nM
IC50 [1]: 2000 to 5000 nM

NC(=S)N/N=C/c1cc(-c2ccccc2)ccc1O [Example 4, 5-Phenylsalicylaldehyde thiosemicarbazone]
IC50 (CDK5 complexed with p25): < 500 nM
IC50 [1]: 500 to 2000 nM

NC(=O)N/N=C/c1cc(-c2ccccc2)ccc1O [Example 5, 5-Phenylsalicylaldehyde semicarbazone hydrochloride]
IC50 (CDK5 complexed with p25): < 500 nM
IC50 [1]: 500 to 2000 nM

COc1cccc(-c2ccc(O)c(/C=N/NC(N)=S)c2)c1 [Example 6, 5-(3-Methoxyphenyl)salicylaldehyde thiosemicarbazone]
IC50 (CDK5 complexed with p25): 2000 to 5000 nM
IC50 [1]: 2000 to 5000 nM

N#Cc1cccc(-c2ccc(O)c(/C=N/NC(N)=S)c2)c1 [Example 7, 5-(3-Cyanophenyl)salicylaldehyde thiosemicarbazone]
IC50 (CDK5 complexed with p25): 2000 to 5000 nM
IC50 [1]: > 5000 nM

NC(=S)N/N=C/c1cc(-c2cccc(CO)c2)ccc1O [Example 8, 5-(3-Hydroxymethylphenyl)salicylaldehyde thiosemicarbazone]
IC50 (CDK5 complexed with p25): > 5000 nM
IC50 [1]: > 5000 nM

NC(=O)N/N=C/c1cc(-c2cccc(CO)c2)ccc1O [Example 9, 5-(3-Hydroxymethylphenyl)salicylaldehyde semicarbazone hydrochloride]
IC50 (CDK5 complexed with p25): 500 to 2000 nM
IC50 [1]: 2000 to 5000 nM

NC(=S)N/N=C/c1cc(-c2ccc(CO)cc2)ccc1O [Example 10, 5-(4-Hydroxymethylphenyl)salicylaldehyde thiosemicarbazone]
IC50 (CDK5 complexed with p25): > 5000 nM
IC50 [1]: > 5000 nM

NC(=S)N/N=C/c1cc(-c2ccc([N+](=O)[O-])cc2)ccc1O [Example 11, 5-(4-Nitrophenyl)salicylaldehyde thiosemicarbazone]
IC50 (CDK5 complexed with p25): 2000 to 5000 nM
IC50 [1]: > 5000 nM

COC(=O)c1cccc(-c2ccc(O)c(/C=N/NC(N)=S)c2)c1 [Example 12, 5-(3-Methoxycarbonylphenyl)salicylaldehyde thiosemicarbazone]
IC50 (CDK5 complexed with p25): 500 to 2000 nM
IC50 [1]: > 5000 nM

COC(=O)c1cccc(-c2ccc(O)c(/C=N/NC(N)=O)c2)c1 [Example 13, 5-(3-Methoxycarbonylphenyl)salicylaldehyde semicarbazone hydrochloride]
IC50 (CDK5 complexed with p25): > 5000 nM
IC50 [1]: 2000 to 5000 nM

COc1ccc(-c2ccc(O)c(/C=N/NC(N)=S)c2)cc1F [Example 14, 5-(3-Fluoro-4-methoxyphenyl)salicylaldehyde thiosemicarbazone]
IC50 (CDK5 complexed with p25): 500 to 2000 nM
IC50 [1]: 2000 to 5000 nM

NC(=S)N/N=C/c1cc(-c2cccc(F)c2)ccc1O [Example 15, 5-(3-Fluorophenyl)salicylaldehyde thiosemicarbazone]
IC50 (CDK5 complexed with p25): 500 to 2000 nM
IC50 [1]: 500 to 2000 nM

NC(=S)N/N=C/c1cc(-c2ccc(F)cc2)ccc1O [Example 16, 5-(4-Fluorophenyl)salicylaldehyde thiosemicarbazone]
IC50 (CDK5 complexed with p25): 500 to 2000 nM
IC50 [1]: 2000 to 5000 nM

NC(=S)N/N=C/c1cc(-c2cccc(C(=O)O)c2)ccc1O [Example 17, 5-(3-Carboxyphenyl)salicylaldehyde thiosemicarbazone]
IC50 (CDK5 complexed with p25): 2000 to 5000 nM
IC50 [1]: 500 to 2000 nM

NC(=O)N/N=C/c1cc(-c2cccc(C(=O)O)c2)ccc1O [Example 18, 5-(3-Carboxyphenyl)salicylaldehyde semicarbazone hydrochloride]
IC50 (CDK5 complexed with p25): < 500 nM
IC50 [1]: 500 to 2000 nM

NC(=S)N/N=C/c1cc(-c2ccc(C(=O)O)cc2)ccc1O [Example 19, 5-(4-Carboxyphenyl)salicylaldehyde thiosemicarbazone]
IC50 (CDK5 complexed with p25): < 500 nM
IC50 [1]: > 5000 nM

NC(=S)N/N=C/c1cc(-c2cccc(O)c2)ccc1O [Example 20, 5-(3-Hydroxyphenyl)salicylaldehyde thiosemicarbazone]
IC50 (CDK5 complexed with p25): < 500 nM
IC50 [1]: 500 to 2000 nM

NC(=S)N/N=C/c1cc(-c2ccc(O)cc2)ccc1O [Example 21, 5-(4-Hydroxyphenyl)salicylaldehyde thiosemicarbazone]
IC50 (CDK5 complexed with p25): < 500 nM
IC50 [1]: < 500 nM

NC(=S)N/N=C/c1cc(-c2ccc(O)cc2O)ccc1O [Example 27, 5-(2,4-Dihydroxyphenyl)salicylaldehyde thiosemicarbazone]
IC50 (CDK5 complexed with p25): < 500 nM
IC50 [1]: < 500 nM

NC(=S)N/N=C/c1cc(-c2ccc(O)cc2)c(O)cc1O [Example 28, 4-Hydroxy-5-(4-hydroxyphenyl)salicylaldehyde thiosemicarbazone]
IC50 (CDK5 complexed with p25): 2000 to 5000 nM
IC50 [1]: 500 to 2000 nM

NC(=O)N/N=C/c1cc(-c2ccc(O)cc2)c(O)cc1O [Example 29, 4-Hydroxy-5-(4-hydroxyphenyl)salicylaldehyde semicarbazone hydrochloride]
IC50 (CDK5 complexed with p25): > 5000 nM
IC50 [1]: 500 to 2000 nM

NC(=S)N/N=C/c1cc(-c2ccncc2)ccc1O [Example 30, 5-(4-Pyridyl)salicylaldehyde thiosemicarbazone]
IC50 (CDK5 complexed with p25): < 500 nM
IC50 [1]: 2000 to 5000 nM

NC(=S)N/N=C/c1cc(-c2cccnc2)ccc1O [Example 31, 5-(3-Pyridyl)salicylaldehyde thiosemicarbazone]
IC50 (CDK5 complexed with p25): < 500 nM
IC50 [1]: 500 to 2000 nM

NC(=S)N/N=C/c1cc(-c2cncnc2)ccc1O [Example 32, 5-(5-Pyrimidyl)salicylaldehyde thiosemicarbazone]
IC50 (CDK5 complexed with p25): 2000 to 5000 nM
IC50 [1]: 2000 to 5000 nM

NC(=S)N/N=C/c1cc(-c2cccs2)ccc1O [Example 33, 5-(2-Thienyl)salicylaldehyde thiosemicarbazone]
IC50 (CDK5 complexed with p25): 500 to 2000 nM
IC50 [1]: < 500 nM

NC(=S)N/N=C/c1cc(-c2ccsc2)ccc1O [Example 34, 5-(3-Thienyl)salicylaldehyde thiosemicarbazone]
IC50 (CDK5 complexed with p25): 500 to 2000 nM
IC50 [1]: < 500 nM

NC(=S)N/N=C/c1cc(-c2ccc(Cl)s2)ccc1O [Example 35, 5-[2-(5-Chloro-thienyl)]salicylaldehyde thiosemicarbazone]
IC50 (CDK5 complexed with p25): > 5000 nM
IC50 [1]: 500 to 2000 nM

COC(=O)/C=C/c1ccc(O)c(/C=N/NC(N)=S)c1 [Example 37, Methyl (3-formyl-4-hydroxy)cinnamate, thiosemicarbazone]
IC50 (CDK5 complexed with p25): 500 to 2000 nM
IC50 [1]: > 5000 nM

NC(=S)N/N=C/c1cc(/C=C/C(=O)O)ccc1O [Example 38, 3-Formyl-4-hydroxycinnamic acid, thiosemicarbazone]
IC50 (CDK5 complexed with p25): < 500 nM
IC50 [1]: < 500 nM

NC(=S)N/N=C/c1cc(CCC(=O)O)ccc1O [Example 40, 3-(3-Formyl-4-hydroxyphenyl)propionic acid, thiosemicarbazone]
IC50 (CDK5 complexed with p25): < 500 nM
IC50 [1]: < 500 nM

Cc1cc(-c2cc(-c3ccnc(N)n3)ccc2O)nc(N)n1 [Example 72]
IC50 [1]: < 500 nM

Nc1nccc(-c2ccc(O)c(-c3cc(Cl)nc(N)n3)c2)n1 [Example 73, 2-(2-Amino-4-chloro-pyrimidin-6-yl)-4-(2-aminopyrimidin-4-yl)-phenol]
IC50 [1]: < 500 nM

Nc1cc(-c2cc(-c3ccnc(N)n3)ccc2O)nc(N)n1 [Example 74, 2-(2,4-Diamino-pyrimidin-6-yl)-4-(2-aminopyrimidin-4-yl)-phenol]
IC50 [1]: < 500 nM

Nc1nc(-c2cc(-c3ccc(O)cc3)ccc2O)cc(N2CCCC2CO)n1 (stereo not drawn) [Example 79, 3-[2-Amino-6-(2R-hydroxymethyl-pyrrolidin-1-yl)-pyrimidin-4-yl]-biphenyl-4.4′-diol]
IC50 [1]: < 500 nM

Reference: patent US20030187007A1, “Inhibitors of protein kinase for the treatment of disease” (priority 2001, published 2003)
